Drawing on patent US11377425B1, “Small molecule modulators of IL-17” (LEO Pharma A/S, priority 2018, dated 2022), this text covers EC50 for 26 compounds.

Each structure is given as a SMILES string.

This assay has as its target T1, human IL-17AA (Homo sapiens, UniProt Q16552).
T1 construct: host or cells: HEK (human embryonic kidney) cells
T1 sequence (Q16552 24-155): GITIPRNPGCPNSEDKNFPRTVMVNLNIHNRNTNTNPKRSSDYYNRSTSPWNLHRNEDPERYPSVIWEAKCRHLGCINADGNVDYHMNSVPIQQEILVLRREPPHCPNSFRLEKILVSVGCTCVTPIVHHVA
The experiment in a line: IL-8 release assay in human epithelial keratinocytes adult (HEKa). The following applies: HEKa cells, 3 ng/mL HEK-human IL-17AA + 10 ng/mL human TNFalpha; read-out: Rel EC50 IL-8 release assay. In kind it is cell-based. A digest of the protocol: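 IL-8 release, quantified by HTRF and normalized to controls, reports IL-17 signaling in HEKa cells treated with compound plus final 3 ng/mL IL-17AA (HEK-derived) and 10 ng/mL TNF-alpha for 68-72 h; TNF-alpha-only wells set 100% inhibition. Four-parameter logistic fits (r^2>0.9) give relative IC50 and Emax; PrestoBlue flags cytotoxicity.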
Take `Cc1n[nH]c(C)c1-c1ccc(NC(=O)[C@@H](NC(=O)c2ccnn2CC2CC2)C(C2CC2)C2CC2)cc1` [Example 129, 2-(cyclopropylmethyl)-N-[(1S)-1-(dicyclopropylmethyl)-2-[4-(3,5-dimethyl-1H-pyrazol-4-yl)anilino]-2-oxo-ethyl]pyrazole-3-carboxamide]: the EC50 – broadly, the concentration at which the effect is half-maximal – was less than 0.1 µM.

With `Cc1n[nH]c(C)c1-c1ccc(NC(=O)[C@@H](NC(=O)c2ccnn2CCC(F)(F)F)C(C2CC2)C2CC2)cc1` [Example 130, N-[(1S)-1-(dicyclopropylmethyl)-2-[4-(3,5-dimethyl-1H-pyrazol-4-yl)anilino]-2-oxo-ethyl]-2-(3,3,3-trifluoropropyl)pyrazole-3-carboxamide], the EC50 was less than 0.1 µM.

Turning to `Cc1n[nH]c(C)c1-c1ccc(NC(=O)[C@@H](NC(=O)c2ccnn2CCN(C)C)C(C2CC2)C2CC2)cc1` [Example 131, N-[(1S)-1-(dicyclopropylmethyl)-2-[4-(3,5-dimethyl-1H-pyrazol-4-yl)anilino]-2-oxo-ethyl]-2-(2-dimethylaminoethyl) pyrazole-3-carboxamide], the EC50 is 0.1 to 1 µM.

`Cc1n[nH]c(C)c1-c1ccc(NC(=O)[C@@H](NC(=O)c2ccnn2CC(C)C)C(C2CC2)C2CC2)cc1` [Example 132, N-[(1S)-1-(dicyclopropylmethyl)-2-[4-(3,5-dimethyl-1H-pyrazol-4-yl)anilino]-2-oxo-ethyl]-2-isobutyl-pyrazole-3-carboxamide]: the EC50 was less than 0.1 µM.

In the case of `CCCn1nccc1C(=O)N[C@H](C(=O)Nc1ccc(-c2c(C)n[nH]c2C)cc1)C(C1CC1)C1CC1` [Example 133, N-[(1S)-1-(dicyclopropylmethyl)-2-[4-(3,5-dimethyl-1H-pyrazol-4-yl)anilino]-2-oxo-ethyl]-2-propyl-pyrazole-3-carboxamide], the EC50 was less than 0.1 µM.

For `Cc1n[nH]c(C)c1-c1ccc(NC(=O)[C@@H](NC(=O)c2ccnn2[C@@H](C)CO)[C@@H]2C[C@H](C)C[C@H](C)C2)cc1` [Example 141, N-[(1S)-1-[(3R,55)-3,5-dimethylcyclohexyl]-2-[4-(3,5-dimethyl-1H-pyrazol-4-yl)anilino]-2-oxo-ethyl]-2-[(1S)-2-hydroxy-1-methyl-ethyl]pyrazole-3-carboxamide], the EC50 was less than 0.1 µM.

For `Cc1n[nH]c(C)c1-c1ccc(NC(=O)[C@@H](NC(=O)c2ccnn2C)C2C[C@@H](C)C[C@@H](C)C2)cc1` (stereo partly drawn) [Example 146, N-[(1S)-1-[(3R,5S)-3,5-dimethylcyclohexyl]-2-[4-(3,5-dimethyl-1H-pyrazol-4-yl)anilino]-2-oxo-ethyl]-2-methyl-pyrazole-3-carboxamide], the EC50 is less than 0.1 µM.

On to `Cc1n[nH]c(C)c1-c1ccc(NC(=O)[C@@H](NC(=O)c2ccnn2C)C2C[C@@H](C)C[C@@H](C)C2)cc1` (stereo partly drawn) [Example 147, N-[(1S)-1-[(3R,5S)-3,5-dimethylcyclohexyl]-2-[4-(3,5-dimethyl-1H-pyrazol-4-yl)anilino]-2-oxo-ethyl]-2-methyl-pyrazole-3-carboxamide], for which the half-maximal effective concentration (EC50) is less than 0.1 µM.

`Cc1n[nH]c(C)c1-c1ccc(NC(=O)[C@@H](NC(=O)c2cnnn2C(C)C)[C@H]2CC[C@H](C)CC2)cc1` [Example 148, N-[(1S)-2-[4-(3,5-dimethyl-1H-pyrazol-4-yl)anilino]-1-(4-methylcyclohexyl)-2-.oxo-ethyl]-3-isopropyl-tnazole-4-carboxamide]: the 50% effective concentration (EC50) is less than 0.1 µM.

As for `CCn1nncc1C(=O)N[C@H](C(=O)Nc1ccc(-c2c(C)n[nH]c2C)cc1)[C@H]1CC[C@H](C)CC1` [Example 149, N-[(1S)-2-[4-(3,5-dimethyl-1H-pyrazol-4-yl)anilino]-1-(4-methylcyclohexyl)-2-oxo-ethyl]-3-ethyl-triazole-4-carboxamide], the EC50 was in the range of 0.1 to 1 µM.

As to `Cc1n[nH]c(C)c1-c1ccc(NC(=O)[C@@H](NC(=O)c2ccnn2CCS(C)(=O)=O)C(C2CC2)C2CC2)cc1` [Example 158, N-[(1S)-1-(dicyclopropylmethyl)-2-[4-(3,5-dimethyl-1H-pyrazol-4-yl)anilino]-2-oxo-ethyl]-2-(2-methylsulfonylethyl) pyrazole-3-carboxamide], the EC50 was less than 0.1 µM.

As for `Cc1n[nH]c(C)c1-c1ccc(NC(=O)[C@@H](NC(=O)c2ncnn2C(C)C)C(C2CC2)C2CC2)cc1` [Example 162, N-[(1S)-1-(dicyclopropylmethyl)-2-[4-(3,5-dimethyl-1H-pyrazol-4-yl)anilino]-2-oxo-ethyl]-2-isopropyl-1,2,4-triazole-3-carboxamide], the EC50 lay within 0.1 to 1 µM.

Take `Cc1n[nH]c(C)c1-c1ccc(NC(=O)[C@@H](NC(=O)c2ncnn2C)C(C2CC2)C2CC2)cc1` [Example 163, N-[(1S)-1-(dicyclopropylmethyl)-2-[4-(3,5-dimethyl-1H-pyrazol-4-yl)anilino]-2-oxo-ethyl]-2-methyl-1,2,4-triazole-3-carboxamide]: the EC50 was greater than 1 µM.

Turning to `Cc1n[nH]c(C)c1-c1ccc(NC(=O)[C@@H](NC(=O)c2ccnn2CCCO)C(C2CCC2)C2CCC2)cc1` [Example 166, N-[(1S)-1-[di(cyclobutyl)methyl]-2-[4-(3,5-dimethyl-1H-pyrazol-4-yl)anilino]-2-oxo-ethyl]-2-(3-hydroxypropyl)pyrazole-3-carboxamide], the EC50 is less than 0.1 µM.

Consider `Cc1n[nH]c(C)c1-c1ccc(NC(=O)[C@@H](NC(=O)c2ccccc2)C(C2CC2)C2CC2)cc1` [Example 167, N-[(1S)-1-(dicyclopropylmethyl)-2-[4-(3,5-dimethyl-1H-pyrazol-4-yl)anilino]-2-oxo-ethyl]benzamide], for which the EC50 is 0.1 to 1 µM.

Turning to `Cc1n[nH]c(C)c1-c1ccc(NC(=O)[C@@H](NC(=O)C(C)(C)C)C(C2CC2)C2CC2)cc1` [Example 168, N-[(1S)-1-(dicyclopropylmethyl)-2-[4-(3,5-dimethyl-1H-pyrazol-4-yl)anilino]-2-oxo-ethyl]-2,2-dimethyl-propanamide], the EC50 is greater than 1 µM.

As for `Cc1n[nH]c(C)c1-c1ccc(NC(=O)[C@@H](NC(=O)C2CCC2)C(C2CC2)C2CC2)cc1` [Example 169, N-[(1S)-1-(dicyclopropylmethyl)-2-[4-(3,5-dimethyl-1H-pyrazol-4-yl)anilino]-2-oxo-ethyl]cyclobutane carboxamide], the EC50 was greater than 1 µM.

As to `Cc1n[nH]c(C)c1-c1ccc(NC(=O)[C@@H](NC(=O)C2CCCC2)C(C2CC2)C2CC2)cc1` [Example 170, N-[(1S)-1-(dicyclopropylmethyl)-2-[4-(3,5-dimethyl-1H-pyrazol-4-yl)anilino]-2-oxo-ethyl]cyclopentane carboxamide], the EC50 lay within 0.1 to 1 µM.

On to `Cc1n[nH]c(C)c1-c1ccc(NC(=O)[C@@H](NC(=O)c2ccnn2C(C)C#N)C(C2CC2)C2CC2)cc1` (stereo partly drawn) [Example 171, 2-(1-cyanoethyl)-N-[(1S)-1-(dicyclopropylmethyl)-2-[4-(3,5-dimethyl-1H-pyrazol-4-yl)anilino]-2-oxo-ethyl]pyrazole-3-carboxamide], for which the EC50 is greater than 1 µM.

Consider `Cc1n[nH]c(C)c1-c1ccc(NC(=O)[C@@H](NC(=O)c2ccn(C(C)C#N)n2)C(C2CC2)C2CC2)cc1` (stereo partly drawn) [Example 172, 1-(1-cyanoethyl)-N-[(1S)-1-(dicyclopropylmethyl)-2-[4-(3,5-dimethyl-1H-pyrazol-4-yl)anilino]-2-oxo-ethyl]pyrazole-3-carboxamide], for which the EC50 is greater than 1 µM.

For the compound `Cc1n[nH]c(C)c1-c1ccc(NC(=O)[C@@H](NC(=O)c2ccnn2CCC(O)C(F)(F)F)C(C2CC2)C2CC2)cc1` (stereo partly drawn) [Example 179, N-[(1S)-1-(dicyclopropylmethyl)-2-[4-(3,5-dimethyl-1H-pyrazol-4-yl)anilino]-2-oxo-ethyl]-2-(4,4,4-trifluoro-3-hydroxy-butyl)pyrazole-3-carboxamide], the EC50 was less than 0.1 µM.

Consider `CCn1nccc1C(=O)N[C@H](C(=O)Nc1ccc(-c2c(C)n[nH]c2C)cc1)[C@@H]1CC2(CC2)CCC1(F)F` [Example 180, N-[(1S)-1-[(7S)-6,6-difluorospiro[2.5]octan-7-yl]-2-[4-(3,5-dimethyl-1H-pyrazol-4-yl)anilino]-2-oxo-ethyl]-2-ethyl-pyrazole-3-carboxamide], for which the EC50 is less than 0.1 µM.

Regarding `Cc1n[nH]c(C)c1-c1ccc(NC(=O)[C@@H](NC(=O)c2ccnn2C(C)C)[C@@H]2CC3(CC3)CCC2(F)F)cc1` [Example 181, N-[(1S)-1-[(7S)-6,6-difluorospiro[2.5]octan-7-yl]-2-[4-(3,5-dimethyl-1H-pyrazol-4-yl)anilino]-2-oxo-ethyl]-2-isopropyl-pyrazole-3-carboxamide], the EC50 is less than 0.1 µM.

Take `Cc1n[nH]c(C)c1-c1ccc(NC(=O)[C@@H](NC(=O)c2ccnn2CCO)C(C2CC2)C2CC2)cc1` [Example 183, N-[(1S)-1-(dicyclopropylmethyl)-2-[4-(3,5-dimethyl-1H-pyrazol-4-yl)anilino]-2-oxo-ethyl]-2-(2-hydroxyethyl)pyrazole-3-carboxamide]: the concentration giving a half-maximal response (EC50) was in the range of 0.1 to 1 µM.

Take `Cc1n[nH]c(C)c1-c1ccc(NC(=O)[C@@H](NC(=O)c2ccnn2CC(F)(F)F)C(C2CC2)C2CC2)cc1` [Example 184, N-[(1S)-1-(dicyclopropylmethyl)-2-[4-(3,5-dimethyl-1H-pyrazol-4-yl)anilino]-2-oxo-ethyl]-2-(2,2,2-trifluoroethyl)pyrazole-3-carboxamide]: the EC50 was less than 0.1 µM.

In the case of `Cc1n[nH]c(C)c1-c1ccc(NC(=O)[C@@H](NC(=O)c2ccnn2CCC(C)O)C(C2CC2)C2CC2)cc1` (stereo partly drawn) [Example 185, N-[(1S)-1-(dicyclopropylmethyl)-2-[4-(3,5-dimethyl-1H-pyrazol-4-yl)anilino]-2-oxo-ethyl]-2-(3-hydroxybutyl)pyrazole-3-carboxamide], the EC50 was less than 0.1 µM.
